Measurements reported in ChEMBL document CHEMBL1201862, “PubChem BioAssay data set” (2004).
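Dose response: 5 concentrations. Exposure: 48 h. Format: 96-well plates. Endpoint: linear interpolation; highest concentration if not reached. GI50 marks 50% less growth.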 Active and inactive are the calls of the source. No stated cut-off is given here; in the data, active = GI50 up to about 1.1 µM and inactive = higher. Square brackets hold non-standard residues; d marks the D form. Peptide text beside a SMILES is read from it. * marks the point of attachment. ξ: configuration not given here. ξW = NC(Cc1c[nH]c2ccccc12)C(=O)O; X29 = O=C(O)[C@H]1CCC[C@H]1N*; ξF = NC(Cc1ccccc1)C(=O)O; Boc = CC(C)(C)OC(=O)*; ξK = NCCCCC(N)C(=O)O; ξT = CC(O)C(N)C(=O)O; tBu = CC(C)(C)*

Tests used:
Assay in all cases: NCI tumour cell line growth inhibition, 48 h
786-0 = system: 786-0
ACHN = system: ACHN
CCRF-CEM = system: CCRF-CEM
EKVX = system: EKVX
HCC 2998 = system: HCC 2998
HCT-15 = system: HCT-15
HT-29 = system: HT-29
IGROV-1 = system: IGROV-1
KM12 = system: KM12
NCI-H23 = system: NCI-H23
NCI/ADR-RES = system: NCI/ADR-RES
OVCAR-4 = system: OVCAR-4
PC-3 = system: PC-3
RXF 393 = system: RXF 393
SN12C = system: SN12C
SNB-19 = system: SNB-19
SNB-75 = system: SNB-75
T47D = system: T47D
UO-31 = system: UO-31

Compound | GI50 (786-0) | GI50 (ACHN) | GI50 (CCRF-CEM) | GI50 (EKVX) | GI50 (HCC 2998) | GI50 (HCT-15) | GI50 (HT-29) | GI50 (IGROV-1) | GI50 (KM12) | GI50 (NCI-H23) | GI50 (NCI/ADR-RES) | GI50 (OVCAR-4) | GI50 (PC-3) | GI50 (RXF 393) | GI50 (SN12C) | GI50 (SNB-19) | GI50 (SNB-75) | GI50 (T47D) | GI50 (UO-31)
CC(=O)C(CN1CCOCC1)C(c1ccccc1)c1c(O)c2ccccc2oc1=O (stereo not given) | > 100 µM (inactive) | > 100 µM (inactive) | > 100 µM (inactive) | > 100 µM (inactive) | > 100 µM (inactive) | > 100 µM | > 100 µM (inactive) | > 100 µM (inactive) | > 100 µM (inactive) | > 100 µM (inactive) | > 100 µM (inactive) | > 100 µM (inactive) | > 100 µM (inactive) | 31.6 µM (inactive) | > 100 µM (inactive) | > 100 µM (inactive) | > 100 µM (inactive) | > 100 µM (inactive) | > 100 µM (inactive)
CC(OC(C)(C)C)C(NC(=O)C(CCCCNC(=O)OC(C)(C)C)NC(=O)C(Cc1c[nH]c2ccccc12)NC(=O)C(N)Cc1ccccc1)C(=O)NC(Cc1ccccc1)C(=O)N[C@@H]1CCC[C@@H]1C(=O)O (stereo not given in full) (H-[ξF][ξW][ξK](Boc)[ξT](tBu)[ξF]-X29) | > 100 µM (inactive) | > 100 µM (inactive) | 36.2 µM (inactive) | > 100 µM (inactive) | 19.7 µM (inactive) | > 10 µM | 29.6 µM (inactive) | 51.4 µM (inactive) | 19.4 µM (inactive) | 34 µM (inactive) | > 100 µM (inactive) | 71.4 µM (inactive) | 45.6 µM (inactive) | > 100 µM (inactive) | 28.2 µM (inactive) | 33.6 µM (inactive) | 59.6 µM (inactive) | 33.8 µM (inactive) | > 100 µM (inactive)
O=c1c2ccccc2n2c(-c3ccccc3O)nnc2n1-c1ccccc1 | > 100 µM (inactive) | > 100 µM (inactive) | 67.3 µM (inactive) | > 100 µM (inactive) | > 100 µM (inactive) | > 100 µM | > 100 µM (inactive) | > 100 µM (inactive) | > 100 µM (inactive) | > 100 µM (inactive) | > 100 µM (inactive) | > 100 µM (inactive) | > 100 µM (inactive) | > 100 µM (inactive) | > 100 µM (inactive) | > 100 µM (inactive) | > 100 µM (inactive) | > 100 µM (inactive) | 2.76 µM (inactive)
COC(=O)/C=C/CCC#Cc1ccccc1C#CCC/C=C/C(=O)OC | 4.98 µM (inactive) | 23.7 µM (inactive) | 4.48 µM (inactive) | 36.1 µM (inactive) | 50.1 µM (inactive) | 3.98 µM | 3.49 µM (inactive) | 4.88 µM (inactive) | 4.98 µM (inactive) | 4.78 µM (inactive) | 8.28 µM (inactive) | 16.9 µM (inactive) | 14.3 µM (inactive) | 4.49 µM (inactive) | 7.38 µM (inactive) | 4.97 µM (inactive) | 2.89 µM (inactive) | 4.07 µM (inactive) | 19.5 µM (inactive)
C/C(=N\NC(N)=S)c1sc(-n2nc(-c3ccccc3)cc2-c2ccccc2)nc1C | > 100 µM (inactive) | > 100 µM (inactive) | 36.5 µM (inactive) | 50.1 µM (inactive) | > 100 µM (inactive) | 94.4 µM | 37.5 µM (inactive) | 16 µM (inactive) | > 100 µM (inactive) | > 100 µM (inactive) | 67.1 µM (inactive) | 74.6 µM (inactive) | 63.1 µM (inactive) | > 100 µM (inactive) | > 100 µM (inactive) | > 100 µM (inactive) | > 100 µM (inactive) | 23.2 µM (inactive) | 69.7 µM (inactive)
